Laboratory results as given in patent publication US12233161B1, “Lipids and lipid nanoparticle formulations” (LONGUIDE BIOPHARMA CORPORATION, priority 2024, dated 2025).

How the values were obtained:
mice = assay: In vivo delivery of FLuc-mRNA lipid nanoparticles in mice, in vivo imaging (IVIS); conditions: for in vivo delivery efficiency as compared to the benchmark compound SM102 / tissue-targeting specificity (lung vs spleen depending on molar percentage of compound): certain formulations, Table 2
Method in brief: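 Mice (n=3) received about 75 μL FLuc-mRNA LNP per mouse intramuscularly (rectus femoris), intravenously (tail vein), intraperitoneally or subcutaneously (back). After injection, D-luciferin (200 μL, 15 mg/mL) was given i.p. 10-15 min before IVIS imaging.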

[1] = Potential characterization of nucleic acid lipid nanoparticle preparations; type: physicochemical
Procedure: 20 μL of the nucleic acid lipid nanoparticle solution (containing about 0.04 mg/mL mRNA) was taken and added with 780 μL of ultrapure water, used a pipette tip to gently blow and mix, and the potential of the nanopreparation was detected by Malvern particle sizer (model ZEN3700).
27.5 μL nucleic acid lipid nanoparticle solution (containing about 0.04 mg/mL mRNA) was taken and added with 200 μL ultrapure water. A pipette tip was used to gently blow the sample and mix well. The particle size of the nanopreparation was detected by Malvern Dynamic Light Scattering Instrument (Malvern Instruments Ltd., ZEN3700, UK). After the detection, the sample was recovered to an EP tube, and 600 μL of ultrapure water was added, gently blown with a pipette tip, and the potential of the nanopreparation was measured by a Malvern particle size meter.

[2] = Particle size and PDI of nucleic acid lipid nanoparticle preparations by dynamic light scattering; type: physicochemical
Method in brief: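 LNP solution (about 0.04 mg/mL mRNA before dilution) was diluted in ultrapure water and mixed by gentle pipetting. Particle size and PDI were then measured by dynamic light scattering.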

[3] = DMG-PEG2000:DSPC:Chol:Lipid 1.00:4.00:60.00:35.00, N/P 18, IV, liver
[4] = DMG-PEG2000:DSPC:Chol:Lipid 1.00:4.00:60.00:35.00, N/P 18, IV, lung
[5] = DMG-PEG2000:DSPC:Chol:Lipid 1.00:4.00:60.00:35.00, N/P 18, IV, spleen
[6] = DMG-PEG2000:DSPC:Chol:Lipid 2.50:16.00:16.50:65.00, N/P 18, IV, liver
[7] = DMG-PEG2000:DSPC:Chol:Lipid 2.50:16.00:16.50:65.00, N/P 18, IV, lung
[8] = DMG-PEG2000:DSPC:Chol:Lipid 2.50:16.00:16.50:65.00, N/P 18, IV, spleen
[9] = mRNA LNP, 1.00:4.00:30.00:65.00, N/P 30, IV, liver
[10] = mRNA LNP, 1.00:4.00:30.00:65.00, N/P 30, IV, lung
[11] = mRNA LNP, 1.00:4.00:30.00:65.00, N/P 30, IV, spleen
[12] = mRNA LNP, 1.00:4.00:30.00:65.00, N/P 30
[13] = DMG-PEG2000:DSPC:Chol:Lipid 1.00:4.00:60.00:35.00, N/P 18, mRNA LNP
[14] = DMG-PEG2000:DSPC:Chol:Lipid 1.71:12.98:45.31:40.00, N/P 30, mRNA LNP
[15] = DMG-PEG2000:DSPC:Chol:Lipid 2.50:16.00:16.50:65.00, N/P 18, mRNA LNP
[16] = DMG-PEG2000:DSPC:Chol:Lipid 0.50:4.00:47.00:48.50, N/P 36, IV, liver
[17] = DMG-PEG2000:DSPC:Chol:Lipid 0.50:4.00:47.00:48.50, N/P 36, IV, lung
[18] = DMG-PEG2000:DSPC:Chol:Lipid 0.50:4.00:47.00:48.50, N/P 36, IV, spleen
[19] = DMG-PEG2000:DSPC:Chol:Lipid 1.00:4.00:25.00:70.00, N/P 36, IV, liver
[20] = DMG-PEG2000:DSPC:Chol:Lipid 1.00:4.00:25.00:70.00, N/P 36, IV, lung
[21] = DMG-PEG2000:DSPC:Chol:Lipid 1.00:4.00:25.00:70.00, N/P 36, IV, spleen
[22] = DMG-PEG2000:DSPC:Chol:Lipid 1.00:16.00:48.00:35.00, N/P 18, IV, liver
[23] = DMG-PEG2000:DSPC:Chol:Lipid 1.00:16.00:48.00:35.00, N/P 18, IV, lung
[24] = DMG-PEG2000:DSPC:Chol:Lipid 1.00:16.00:48.00:35.00, N/P 18, IV, spleen
[25] = DMG-PEG2000:DSPC:Chol:compound 1.00:10.00:33.00:56.00, N/P 48
[26] = DMG-PEG2000:DSPC:Chol:Lipid 0.50:4.00:47.00:48.50, N/P 36, mRNA LNP
[27] = DMG-PEG2000:DSPC:Chol:Lipid 1.00:4.00:25.00:70.00, N/P 36, mRNA LNP
[28] = DMG-PEG2000:DSPC:Chol:Lipid 1.00:16.00:48.00:35.00, N/P 18, mRNA LNP
[29] = DMG-PEG2000:DSPC:Chol:Lipid 1.40:11.15:38.95:48.50, N/P 18, mRNA LNP
[30] = IM, DMG-PEG2000:DSPC:Chol:compound 1.40:11.15:38.95:48.50, N/P 30, Fluc-mRNA
[31] = IV, body, DMG-PEG2000:DSPC:Chol:compound 1.40:11.15:38.95:48.50, N/P 30, Fluc-mRNA
[32] = IV, liver, DMG-PEG2000:DSPC:Chol:compound 1.40:11.15:38.95:48.50, N/P 30
[33] = IV, liver, DMG-PEG2000:DSPC:Chol:compound 1.40:11.15:38.95:48.50, N/P 30, Fluc-mRNA
[34] = IV, lung, DMG-PEG2000:DSPC:Chol:compound 1.40:11.15:38.95:48.50, N/P 30
[35] = IV, lung, DMG-PEG2000:DSPC:Chol:compound 1.40:11.15:38.95:48.50, N/P 30, Fluc-mRNA
[36] = IV, spleen, DMG-PEG2000:DSPC:Chol:compound 1.40:11.15:38.95:48.50, N/P 30
[37] = IV, spleen, DMG-PEG2000:DSPC:Chol:compound 1.40:11.15:38.95:48.50, N/P 30, Fluc-mRNA
[38] = DMG-PEG2000:DSPC:Chol:compound 1.40:11.15:38.95:48.50, N/P 30

## CCCCCCCCCCCCNC(=O)C(O)CN(CCN(C)CCN(CC(O)C(=O)NCCCCCCCCCCCC)CC(O)C(=O)NCCCCCCCCCCCC)CC(O)C(=O)NCCCCCCCCCCCC (stereo not drawn) [Compound L0264]
mice; DMG-PEG2000:DSPC:Chol:Lipid 1.00:4.00:60.00:35.00, N/P 18, IV, body
  IVIS: 9.71 × 10^7
mice; [3]
  % of organ targeting: 13.54%
  IVIS: 4.70 × 10^6
mice; [4]
  % of organ targeting: 34.29%
  IVIS: 1.19 × 10^7
mice; [5]
  % of organ targeting: 52.16%
  IVIS: 1.81 × 10^7
mice; DMG-PEG2000:DSPC:Chol:Lipid 1.71:12.98:45.31:40.00, N/P 30, IM, whole body scan
  IVIS: 3.34 × 10^5
mice; DMG-PEG2000:DSPC:Chol:Lipid 2.50:16.00:16.50:65.00, N/P 18, IV, body
  IVIS: 4.76 × 10^7
mice; [6]
  % of organ targeting: 0.90%
  IVIS: 9.86 × 10^5
mice; [7]
  % of organ targeting: 95.82%
  IVIS: 1.05 × 10^8
mice; [8]
  % of organ targeting: 3.28%
  IVIS: 3.59 × 10^6
mice
  in vivo delivery efficiency as compared to the benchmark compound SM102: superior in vivo delivery efficiency
  tissue-targeting specificity (lung vs spleen depending on molar percentage of compound): strong tissue-targeting specificity
mice; [9]
  % of organ targeting: 0.40%
  IVIS: 2.69E+06
mice; [10]
  % of organ targeting: 98.90%
  IVIS: 6.68E+08
mice; [11]
  % of organ targeting: 0.71%
  IVIS: 4.76E+06
mice; mRNA LNP, DMG-PEG2000:DSPC:Chol:lipid 1.00:4.00:30.00:65.00, N/P 30, IV, body
  IVIS: 2.87E+08
[1]; [12]
  Zeta potential (mV): 12.33 mV
[2]; [13]
  PDI: 0.08 ± 0.02
  Particle size: 78.48 ± 0.63 nm
[2]; [14]
  PDI: 0.18 ± 0.00
  Particle size: 85.86 ± 1.26 nm
[2]; [15]
  PDI: 0.15 ± 0.01
  Particle size: 92.82 ± 0.65 nm
[2]; [12]
  PDI: 0.14
  Particle size (nm): 90.94 nm

## CCCCCCCCCCCCNC(=O)C(O)CN(CCCN(CCCN(CC(O)C(=O)NCCCCCCCCCCCC)CC(O)C(=O)NCCCCCCCCCCCC)CC(O)CO)CC(O)C(=O)NCCCCCCCCCCCC (stereo not drawn) [Compound L0273]
mice; DMG-PEG2000:DSPC:Chol:Lipid 0.50:4.00:47.00:48.50, N/P 36, IV, body
  IVIS: 5.29 × 10^7
mice; [16]
  % of organ targeting: 1.50%
  IVIS: 2.55 × 10^6
mice; [17]
  % of organ targeting: 95.51%
  IVIS: 1.62 × 10^8
mice; [18]
  % of organ targeting: 2.99%
  IVIS: 5.07 × 10^6
mice; DMG-PEG2000:DSPC:Chol:Lipid 1.00:4.00:25.00:70.00, N/P 36, IV, body
  IVIS: 1.65 × 10^8
mice; [19]
  % of organ targeting: 1.40%
  IVIS: 6.91 × 10^6
mice; [20]
  % of organ targeting: 97.42%
  IVIS: 4.82 × 10^8
mice; [21]
  % of organ targeting: 1.19%
  IVIS: 5.88 × 10^6
mice; DMG-PEG2000:DSPC:Chol:Lipid 1.00:16.00:48.00:35.00, N/P 18, IV, body
  IVIS: 3.19 × 10^7
mice; [22]
  % of organ targeting: 14.38%
  IVIS: 3.44 × 10^6
mice; [23]
  % of organ targeting: 9.95%
  IVIS: 2.38 × 10^6
mice; [24]
  % of organ targeting: 75.67%
  IVIS: 1.81 × 10^7
mice; DMG-PEG2000:DSPC:Chol:Lipid 1.40:11.15:38.95:48.50, N/P 18, IM, whole body scan
  IVIS: 2.54 × 10^6
mice; IV, body, DMG-PEG2000:DSPC:Chol:compound 1.00:10.00:33.00:56.00, N/P 48, Fluc-mRNA
  IVIS: 4.36E+08
mice; IV, liver, DMG-PEG2000:DSPC:Chol:compound 1.00:10.00:33.00:56.00, N/P 48
  % of organ targeting: 0.73%
mice; IV, liver, DMG-PEG2000:DSPC:Chol:compound 1.00:10.00:33.00:56.00, N/P 48, Fluc-mRNA
  IVIS: 5.72E+06
mice; IV, lung, DMG-PEG2000:DSPC:Chol:compound 1.00:10.00:33.00:56.00, N/P 48
  % of organ targeting: 98.17%
mice; IV, lung, DMG-PEG2000:DSPC:Chol:compound 1.00:10.00:33.00:56.00, N/P 48, Fluc-mRNA
  IVIS: 7.69E+08
mice; IV, spleen, DMG-PEG2000:DSPC:Chol:compound 1.00:10.00:33.00:56.00, N/P 48
  % of organ targeting: 1.09%
mice; IV, spleen, DMG-PEG2000:DSPC:Chol:compound 1.00:10.00:33.00:56.00, N/P 48, Fluc-mRNA
  IVIS: 8.58E+06
mice
  in vivo delivery efficiency as compared to the benchmark compound SM102: superior in vivo delivery efficiency
  tissue-targeting specificity (lung vs spleen depending on molar percentage of compound): strong tissue-targeting specificity
[1]; [25]
  Zeta potential (mV): 13.60 mV
[2]; [26]
  PDI: 0.11 ± 0.01
  Particle size: 113.50 ± 0.20 nm
[2]; [27]
  PDI: 0.18 ± 0.01
  Particle size: 167.67 ± 2.20 nm
[2]; [28]
  PDI: 0.15 ± 0.02
  Particle size: 119.23 ± 0.68 nm
[2]; [29]
  PDI: 0.13 ± 0.02
  Particle size: 91.45 ± 0.74 nm
[2]; [25]
  PDI: 0.13
  Particle size (nm): 125.97 nm

## CCCCCCCCCCNC(=O)C(O)CN(CCCN(CCCN(CC(O)C(=O)NCCCCCCCCCC)CC(O)C(=O)NCCCCCCCCCC)C(CO)CO)CC(O)C(=O)NCCCCCCCCCC (stereo not drawn) [Compound L0287]
mice; [30]
  IVIS: 1.81E+06
mice; [31]
  IVIS: 1.89E+07
mice; [32]
  % of organ targeting: 34.55%
mice; [33]
  IVIS: 3.26E+06
mice; [34]
  % of organ targeting: 25.98%
mice; [35]
  IVIS: 2.45E+06
mice; [36]
  % of organ targeting: 39.46%
mice; [37]
  IVIS: 3.72E+06
[1]; [38]
  Zeta potential (mV): 14.13 mV
[2]; [38]
  PDI: 0.18
  Particle size (nm): 137.37 nm

## CCCCCCCCCCCCNC(=O)C(O)CNCCCN(C)CCCN(CC(O)C(=O)NCCCCCCCCCCCC)CC(O)C(=O)NCCCCCCCCCCCC (stereo not drawn) [Compound L0288]
mice; [30]
  IVIS: 1.45E+05
mice; [31]
  IVIS: 6.03E+06
mice; [32]
  % of organ targeting: 5.74%
mice; [33]
  IVIS: 5.25E+05
mice; [34]
  % of organ targeting: 78.38%
mice; [35]
  IVIS: 7.18E+06
mice; [36]
  % of organ targeting: 15.88%
mice; [37]
  IVIS: 1.45E+06
[1]; [38]
  Zeta potential (mV): 12.50 mV
[2]; [38]
  PDI: 0.12
  Particle size (nm): 108.77 nm

## CCCCCCCCCCCCNC(=O)C(O)CNCCCN(C)CCCNCC(O)C(=O)NCCCCCCCCCCCC (stereo not drawn) [Compound L0289]
mice; [30]
  IVIS: 1.24E+05
mice; IV, organ not given, DMG-PEG2000:DSPC:Chol:compound 1.40:11.15:38.95:48.50, N/P 30, Fluc-mRNA
  IVIS: 1.63E+05
[1]; [38]
  Zeta potential (mV): 11.00 mV
[2]; [38]
  PDI: 0.09
  Particle size (nm): 132.40 nm
